Assay results published in patent publication US20170044150A1, “IDENTIFICATION OF COMPOUNDS WHICH INHIBIT ATG8-ATG3 PROTEIN-PROTEIN INTERACTION AND THEIR USE AS ANTIPARASITICAL AGENTS” (THE JOHNS HOPKINS UNIVERSITY, priority 2014, published 2017).

Experiments:
PfAtg8^CM = PfAtg8^CM (Plasmodium falciparum, UniProt Q8IJK2); test: Thermal shift assay; settings: 100 μM to 2 mM
P. falciparum 3D7 = test: SYBR Green I growth inhibition assay, blood stage; format: cell-based; settings: Plasmodium falciparum, 3D7, 3D7 blood stage cultures; read-out: IC50
Protocol: P. falciparum blood stage culturing. P. falciparum 3D7 and FCR3 cultures were maintained using modified, previously published methods at 37° C., 2% hematocrit of human red blood cells (Science 1976, 193, 673-675). Complete culture media consisted of sterile RPMI 1640 media (Life Technologies), supplemented with 10% human serum, 0.005% hypoxanthine, and buffered with final concentrations of 0.6% HEPES and 0.26% NaHCO3. The FCR3 strain was maintained at 3% CO2 and 5% O2, 92% N2 atmosphere, while the 3D7 strain was maintained at 5% CO2, 5% O2, 90% N2 atmosphere.
SYBR Green I growth inhibition assay. 10 μL of 10× compound diluted in RPMI 1640 media (Gibco) with a constant concentration of 1% DMSO was added to a 96 well plate (Costar), 90 μL of 1.5% ring stage, synchronized with 5% w/v sorbitol P. falciparum 3D7 parasites, 1% hematocrit, in culture media with 10% v/v human serum with 10 μg/mL gentamycin. Each compound concentration and 1% v/v DMSO controls were run in triplicate. Plates were incubated at 37° C. in 5% O2, 5% CO2 and 90% N2 for 72 hours. Plates were frozen, thawed, and incubated with 100-μL 2× SYBR green in lysis buffer (20 mM Tris pH 7.5, 5 mM EDTA, 0.008% Saponin, 0.08% TritonX-100) in the dark for at least one hour. Fluorescence was measured with a plate reader (HTS 7000, Perkin Elmer) at excitation/emission wavelengths of 485/535 nm.
Plasmodium parasite growth inhibition assay. P. falciparum 3D7 parasites were cultured as previously described (J Med Chem 57:4521-4531(2014)). Briefly, the parasites were cultured in 10% v/v human serum with 10 μg/mL gentamycin and synchronized with 5% w/v sorbitol. 1.5% ring stage parasites were added to 96 well plates (Costar) containing serial dilutions, performed in triplicate, of compound in RPMI 1640 media (Gibco). Plates were incubated at 37° C. in 5% O2, 5% CO2, and 90% N2 for 72 h. Plates were frozen, thawed, and incubated with 100 μL 2× SYBR green in lysis buffer (20 mM Tris pH 7.5, 5 mM EDTA, 0.008% Saponin, 0.08% TritonX-100) in the dark for 1 h. Fluorescence was measured with a plate reader (HTS 7000, PerkinElmer) at excitation/emission wavelengths of 485/535 nm.

P. falciparum 3D7-GFP = format: cell-based; settings: 96 hrs post infection
Protocol: In vitro infection of human hepatocytes with P. falciparum 3D7-GFP. The HC-04 cell line (ATCC, Manassas, Va., USA) was maintained in complete medium (IMDM containing 2.5% FCS, 100 units/ml penicillin, 100 μg/ml streptomycin and 2 mM L-glutamine, all from GIBCO®, Life Technologies, Grand Island, N.Y.). P. falciparum 3D7-GFP parasite strain (PLoS ONE 2010, 5, e9156) was propagated in the Parasitology Core facility, the Johns Hopkins Malaria Research Institute. In vitro infection of human hepatocytes was done as described previously (PLoS ONE 2013, 8, e75321). Briefly, salivary glands were sequestered from infected Anopheles gambiae mosquitoes at day 17 after exposure to infective blood meal and homogenates were separated on an OptiPrep™ Density Gradient (Sigma-Aldrich, St. Louis, Mo.) at 12,000×g for 10 minutes. Sporozoites were collected from the gradient interface, washed in complete medium, counted using a hemocytometer and incubated with HC-04 cells at 3:1 sporozoite to hepatocyte ratio for 2 hours at 37° C. […]
Detection of P. falciparum exoerythrocytic forms in vitro. HC-04 human hepatocyte cell line (ATCC, Manassas, Va., USA) was maintained in complete medium (IMDM containing 2.5% FCS, 100 units/ml penicillin, 100 μg/ml streptomycin and 2 mM L-glutamine, all from GIBCO®, Life Technologies, Grand Island, N.Y.). P. falciparum 3D7HT-GFP parasite strain (PLoS One. 5(2):e9156. doi:10.1371/journal.pone.0009156 (2010)) was propagated in the Parasitology Core facility of the Johns Hopkins Malaria Research Institute. In vitro infection of human hepatocytes, and detection and quantification of P. falciparum 3D7HT-GFP EEFs by flow cytometry were performed as previously described (PLoS One. 8(9):e75321. doi:10.1371/journal.pone.0075321 (2013)).

[1] = target: T1, PfAtg8-PfAtg3 interaction (Plasmodium falciparum, UniProt Q8IJK2); test: SPR protein-protein interaction assay, PfAtg8-PfAtg3 (VLS compounds); format: binding, P. falciparum; settings: read-out: SPR-IC50; dose-dependent inhibition of plasmodial Atg8-Atg3
T1 construct: rows headed: SPR-IC50
T1 sequence (Q8IJK2 1-124 C32I/C119S/C122S): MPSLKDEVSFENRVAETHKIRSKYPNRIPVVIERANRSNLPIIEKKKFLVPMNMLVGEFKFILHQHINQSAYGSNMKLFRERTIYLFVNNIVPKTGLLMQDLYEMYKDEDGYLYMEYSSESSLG
Protocol: Surface Plasmon Resonance (SPR) protein-protein interaction assay. All measurements were carried out on a BiaCore 3000 instrument. We used the previously described SPR competition assay to test inhibition of the PfAtg8-PfAtg3 and hLC3-hAtg3 interaction. The standard running buffer was 10 mM HEPES, 150 mM NaCl, 0.01% Tween 20, adjusted to pH 7.5. Prior to performing SPR assays, all solutions were sterile filtered and degassed for 1 h at room temperature. For small molecule inhibitor studies, the same running buffer was supplemented with 1% DMSO. All dose dependency measurements were carried out in triplicate and corrected for DMSO absorption effects using double referencing with interspersed blank injections and an untreated flow cell on the SPR chip and the SPR analysis software Scrubber 2.0 (BioLogics). For each interaction pair, a new CM5 SPR chip was used. To exclude surface decay during the experiment, positive control injections were interspersed every 12th injection. For all interaction studies, the Atg3 homologue was immobilized and the corresponding Atg8 partner was passed as an analyte over the chip in either the presence or absence of small molecule inhibitors, dissolved to 100 mM in 100% DMSO and tested at 500 μM final concentration. Prior to the immobilization of Atg3 to an SPR chip, a pH scouting from pH 6.0 to pH 4.0 in intervals of 0.5 pH units was carried out to determine the best pre-concentration conditions for immobilization. Briefly, flow cells of an SPR chip were activated using N-hydroxysuccinimide (NHS) and 1-ethyl-3-(3-dimethylaminopropyl)carbodiimide (EDC) for 7 min with a flow rate of 20 μl/min. For PfAtg3 immobilization, a solution of 50 μg/ml of PfAtg3 in 10 mM sodium acetate pH 5.0 was passed over one flow cell until >500 Response Units (RU) were captured. The same procedure was followed for the immobilization of hAtg3. Activated free binding sites on the chip were blocked using 1 M ethanolamine for an additional 7 min. All experiments were carried out at 25° C. with a 40 μl/min flow rate and 75 s contact time, followed by a 1 min dissociation time and a 25 μl regeneration injection of 2 M MgCl2.
The dose-response curves were used to determine the approximate concentration of analyte (PfAtg8 or hLC3) needed to obtain a particular response unit (RU), typically in the range of 100-150 RU's. A fixed amount of analyte was then passed over the chip resulting in at least 100-150 response units (RU) in the absence of small molecules.

HC-04 cells = test: HC-04 hepatocyte viability / cytotoxicity (Annexin-V, PI flow cytometry); format: cell-based, human; settings: 96 hour treatment
PfAtg8 = test: Immunoblot analysis of PfAtg8 in P. falciparum blood stage cultures; format: cell-based; settings: 100 μM, five-hour treatment
Source text: Immunoblot analysis of P. falciparum blood stage. […] RBCs were harvested with centrifugation, lysed with 0.2% saponin, and RBC lysate was removed through three 1× PBS washes. Parasites were harvested by centrifugation and washed in 1× PBS with Complete EDTA-free protease inhibitors (Roche) and lysed by repeated vortexing and boiling in SDS reducing sample buffer. […] HRP-conjugated secondary antibodies (Southern Biotech) were detected by SuperSignal West Femto (Thermo Scientific) or Amersham™ ECL™ Prime (GE Healthcare) chemiluminescent substrate. AP-conjugated secondary antibodies (EMD Millipore) were detected using NBT/BCIP (Promega) colorimetric stain. Total protein levels were visualized with ProAct™ Membrane Stain (Amresco) and quantified with ImageJ. Parasite morphology at time of harvesting was visualized with light microscopy at 100× magnification on Olympus BX53 system microscope (Olympus America, Inc.).

hLC3-hAtg3 interaction = target: T2, hLC3-hAtg3 interaction (Homo sapiens, UniProt Q9GZQ8); test: SPR protein-protein interaction assay, hLC3-hAtg3; format: binding; settings: 500 μM
T2 construct: made in house; host or cells: E. coli Rosetta 2
Protocol: Surface Plasmon Resonance (SPR) protein-protein interaction assay. All measurements were carried out on a BiaCore 3000 instrument. We used the previously described SPR competition assay to test inhibition of the PfAtg8-PfAtg3 and hLC3-hAtg3 interaction. The standard running buffer was 10 mM HEPES, 150 mM NaCl, 0.01% Tween 20, adjusted to pH 7.5. Prior to performing SPR assays, all solutions were sterile filtered and degassed for 1 h at room temperature. For small molecule inhibitor studies, the same running buffer was supplemented with 1% DMSO. All dose dependency measurements were carried out in triplicate and corrected for DMSO absorption effects using double referencing with interspersed blank injections and an untreated flow cell on the SPR chip and the SPR analysis software Scrubber 2.0 (BioLogics). For each interaction pair, a new CM5 SPR chip was used. To exclude surface decay during the experiment, positive control injections were interspersed every 12th injection. For all interaction studies, the Atg3 homologue was immobilized and the corresponding Atg8 partner was passed as an analyte over the chip in either the presence or absence of small molecule inhibitors, dissolved to 100 mM in 100% DMSO and tested at 500 μM final concentration. […]

Row | effect on hAtg3-hLC3 binding (hLC3-hAtg3 interaction) | Compound | effect on Tm of PfAtg8^CM (PfAtg8^CM) | IC50 (P. falciparum 3D7) [µM] | reduction of the number of infected HC-04 cells (P. falciparum 3D7-GFP; 30 μM) [%] | GFP fluorescence intensity (P. falciparum 3D7-GFP) | IC50 [1] [µM] | cell viability of HC-04 cells (HC-04 cells) | increase of PfAtg8 protein levels compared to the loading control (PfAtg8) | mobility of Atg8 (PfAtg8)
1 |  | Cc1cccc(CNC(=O)NCC2CCN(Cc3ccccn3)C2)c1 (stereo not drawn) [Compound C25, 1-[(3-methylphenyl)methyl]-3-([1-pyridin-2-ylmethyl-pyrrolidin-3-yl]methyl)urea] | dose-dependent decrease | 19 ± 6 | 30 | little effect | 18.5 ± 2.1 | did not affect cell viability | over 10 fold | retarded, indicative of the unlipidated Atg8 species
2 | significant increase in binding | Cc1cccn2cc(C(=O)NCC3CCN(Cc4cnc[nH]4)C3)nc12 (stereo not drawn) [Compound C24, N-([1-(1H-imidazol-5-ylmethyl)pyrrolidin-3-yl]methyl)-8-methyl-imidazo[3,2-a] pyridine-2-carboxamide] |  |  |  |  |  |  |  | 
